Earlier results, collected in patent US10154968B2, “Buprenorphine nanoparticle composition and methods thereof” (AUBURN UNIVERSITY, priority 2012, dated 2018).

For `CO[C@@]12CC[C@@]3(C[C@@H]1[C@](C)(O)C(C)(C)C)[C@H]1Cc4ccc(O)c5c4[C@@]3(CCN1CC1CC1)[C@H]2O5` [Buprenorphine, (25)-2-[(5R,6R,7R,145)-9α-Cyclopropylmethyl-4,5-epoxy-6,14-ethano-3-hydroxy-6-methoxymorphinan-7-yl]-3,3-dimethylbutan-2-ol], the half-life (background statement) is listed as “approximately two” and the “excreted unchanged in the urine” value (previous studies) is listed as 27%.
